Reference: PMC6278281, “Rosmarinic Acid Derivatives’ Inhibition of Glycogen Synthase Kinase-3β Is the Pharmacological Basis of Kangen-Karyu in Alzheimer’s Disease” (Molecules, 2018)
“And” between values parts separate entries of the source, which are not always exact repeats. Identical values can stand only once. Like-named read-outs stand apart in the source and are kept apart here.

Legend:
[1] = system: Glycogen synthase kinase 3β; conditions: cited from earlier work; for Inhibition Mode / IC50: reference controls; for IC50: read-out: IC50, GSK-3β inhibition
[2] = target: T1, human recombinant GSK-3β (Homo sapiens, UniProt P49841); experiment: GSK-3β enzyme inhibition assay (Kinase-Glo luminescent kinase assay); format: biochemical; conditions: pure compounds, mean ± SEM of triplicate experiments
T1 construct: purchased ProSpec-Tany TechnoGene Ltd., Ness-Ziona, Israel
T1 sequence (P49841 whole entry): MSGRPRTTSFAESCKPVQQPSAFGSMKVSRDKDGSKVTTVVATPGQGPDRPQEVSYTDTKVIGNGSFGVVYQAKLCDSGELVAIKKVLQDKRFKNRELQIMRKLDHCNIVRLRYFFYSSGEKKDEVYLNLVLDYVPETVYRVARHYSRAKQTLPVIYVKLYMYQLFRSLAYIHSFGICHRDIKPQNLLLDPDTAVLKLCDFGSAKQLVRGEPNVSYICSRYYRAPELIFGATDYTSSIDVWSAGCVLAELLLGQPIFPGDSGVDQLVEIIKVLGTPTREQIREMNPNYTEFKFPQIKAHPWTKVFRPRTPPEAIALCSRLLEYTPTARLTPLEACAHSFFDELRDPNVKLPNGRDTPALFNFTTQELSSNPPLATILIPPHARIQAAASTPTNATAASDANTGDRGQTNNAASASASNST
Protocol: The enzymatic inhibition of GSK-3β in vitro was evaluated with human recombinant GSK-3β by using a Kinase-Glo reagent kit, according to Baki et al. [52] with a slight modification. The kinase reaction was performed in 384-well black plates. Test concentrations were prepared through serial dilution by using an assay buffer (pH 7.5) containing 50 mM HEPES, 1 mM EDTA, 1 mM EGTA, and 15 mM magnesium acetate. To initiate the reaction, 5 µL of sample, 5 µL of ATP (1 µM final concentration), 5 µL of 50 µM GSM, and 5 µL of 20 ng GSK-3β were mixed simultaneously in each well (the final DMSO concentration in the reaction mixture was less than 5%). Test samples were replaced by 5 µL of either buffer or luteolin to produce positive control (maximum activity) and negative control (total inhibition) samples. The reaction mixture was incubated at 37 °C for 30 min and was followed by the addition of the 20-µL Kinase-Glo reagent to stop the reaction. Glow-type luminescence was recorded after 10 min. The activity was proportional to the difference between total and consumed ATP. Inhibition activities were calculated on the basis of maximal activity, measured in the absence of the inhibitor, and the maximal inhibition was measured in the presence of the reference compound.

[3] = system: BACE1; design: method as in PMID 29679864; conditions: cited from earlier work
[4] = target: T1, human recombinant GSK-3β; experiment: GSK-3β enzyme kinetics (Lineweaver–Burk and secondary plots, varying ATP or GSM substrate); format: biochemical; conditions: for Ki: from secondary plots; for Inhibition Mode: Lineweaver–Burk plots
Protocol: The mode of GSK-3β enzyme inhibition by Sal B was characterized via kinetic study by using various concentrations of GSM substrate and ATP. Lineweaver–Burk plots showing reciprocal rates versus reciprocal GSM substrate/ATP concentrations (Figure 3) were deployed to explore the GSK-3β inhibition mechanism.
The GSK-3β enzyme kinetics was evaluated by using the assay method described in Section 4.4 with varying concentrations of ATP (2 µM, 1 µM, or 0.5 µM) or substrate (50 µM, 25 µM, or 12.5 µM). A Lineweaver–Burk plot was prepared by using double reciprocal plots of enzyme kinetic data. Ki values were calculated from the secondary plots.

[5] = system: SH-SY5Y-APPsw cells; design: method as in PMID 27258307; conditions: by modulating BACE1 activity; cited from earlier work
[6] = design: method as in PMID 29027831; conditions: nasal administration in rats, cited from earlier work
[7] = system: induced pluripotent stem cells (iPSCs); design: method as in PMID 29421539; conditions: via the AKT/GSK-3β signaling pathway; cited from earlier work
[8] = design: method as in PMID 21903108; conditions: induced by scopolamine or Aβ25–35; cited from earlier work
[9] = design: method as in PMID 15484228, PMID 16905282; conditions: oral administration; cited from earlier work
[10] = system: PC12 cells; design: method as in PMID 19101570; conditions: 20 µg/mL; cited from earlier work
[11] = read-out: IC50 (Mean ± SEM), GSK-3β inhibition
[12] = IC50 (Mean ± SEM), GSK-3β inhibition

Row | IC50 [2, 11] | Compound | Inhibition Mode [1] | IC50 [1] [µM] | BACE1 inhibitory activity [3] | also measured
1 | – | O=C1Cc2c([nH]c3ccc([N+](=O)[O-])cc23)-c2ccccc2N1 [Alsterpaullone] | ATP-competitive [31] | 0.004 | – | –
2 | ~30 µM and 30.2 µM | O=C(/C=C/c1ccc(O)c(O)c1/C=C/c1ccc(O)c(O)c1)O[C@H](Cc1ccc(O)c(O)c1)C(=O)O [Salvianolic acid A] | – | – | potent activity | –
3 | – | COc1ccc(CNC(=O)Nc2ncc([N+](=O)[O-])s2)cc1 [AR-A014418] | ATP-competitive [30] | 0.1 | – | Ki ([1]; reference control): 0.03 µM
4 | – | O=C(C=Cc1ccc(O)c2c1C(C(=O)OC(Cc1ccc(O)c(O)c1)C(=O)O)C(c1ccc(O)c(O)c1)O2)OC(Cc1ccc(O)c(O)c1)C(=O)O (stereo not drawn) [Salvianolic acid B] | – | – | – | Ki ([4]; ATP-competitive inhibition, constant GSM substrate (25 μM), varying ATP (0.5, 1, 2 μM)): 5.44 µM; Ki ([4]; muscle glycogen synthase (GSM)-competitive inhibition, constant ATP (1 μM), varying GSM substrate (12.5, 25, 50 μM)): 6.32 µM; Inhibition Mode [4]: ATP-competitive; Inhibition Mode ([4]; listed as Sal B): ATP-competitive and GSM substrate–competitive; Aβ generation [5]: inhibited Aβ generation; brain-targeting efficacy ([6]; compared to intravenous and oral administration): 5.54; bioavailability [6]: 43.98%; proliferation and differentiation into neurons of iPSCs [7]: potently improved; cognitive impairments [8]: reverses cognitive impairments; IC50 [2, 12]: 6.97 ± 0.96 µM; time to maximum plasma concentration [9]: 0.5 to 1 h; time traceable after administration [9]: up to 180 min
5 | – | O=c1cc(-c2ccc(O)c(O)c2)oc2cc(O)cc(O)c12 [Luteolin, reference compound] | – | – | – | IC50 [2, 12]: 2.18 ± 0.13 µM
6 | – | O=C1Nc2ccccc2/C1=C1/Nc2ccccc2C1=O [Indirubin] | ATP-competitive [32] | 0.6 | – | –
7 | ~30 µM and 33.1 µM | O=C(/C=C/c1ccc(O)c2c1[C@H](C(=O)O[C@H](Cc1ccc(O)c(O)c1)C(=O)O)[C@@H](c1ccc(O)c(O)c1)O2)O[C@H](Cc1ccc(O)c(O)c1)C(=O)O [Magnesium lithospermate B] | – | – | potent activity | –
8 | 425 ± 7.61 µM | O=C(O)/C=C/c1ccc(O)c(O)c1 [Caffeic acid] | – | – | – | phosphorylation of GSK-3β and tau protein [10]: decreases the phosphorylation of GSK-3β and tau protein
9 | ~30 µM and 31.8 µM | O=C(/C=C/c1ccc(O)c2oc(-c3ccc(O)c(O)c3)cc12)O[C@H](Cc1ccc(O)c(O)c1)C(=O)O [Salvianolic acid C] | – | – | potent activity | –

Row | Compound | IC50 [2, 11] | Inhibition Mode [1] | IC50 [1] [µM] | BACE1 inhibitory activity [3] | also measured
10 | O=C(/C=C/c1ccc(O)c(O)c1)O[C@H](Cc1ccc(O)c(O)c1)C(=O)O [Rosmarinic acid] | 135 ± 4.69 µM | – | – | potent activity | –
